The term Ki denotes a measure of affinity in units of concentration, obtained from inhibition or displacement.

The assay concerns the target hNOX enzymes. The assay can be described thus: ROS production measurement on hNOX membranes (Amplex Red fluorescence assay, assay 1). Format: biochemical, human. As to conditions: membranes from CHO or HEK cells overexpressing hNox enzymes; Nox isoform not stated; non linear regression; read-out: Nox inhibitory constant Ki. The protocol: Reactive oxygen species (ROS) production generated by hNOX enzymes was measured by fluorescence in both cellular and membrane-based assays using the Amplex® Red reagent. In the presence of horseradish peroxidase (HRP), the Amplex® Red reagent (10-acetyl-3,7-dihydroxyphenoxazine, AR), which is a colorless and nonfluorescent derivative of dihydroresorufin, reacts with H2O2 with a 1:1 stoichiometry to produce highly fluorescent resorufin at an excitation and emission wavelengths of 544 nm and 590 nm, respectively.
Membranes from CHO or HEK cells overexpressing hNox enzymes were prepared as previously described (Palicz et al., 2001, J. Biol. Chem, 76, 3090). After resuspension in sonication buffer (11% sucrose, 120 mM NaCl, 1 mM EGTA in PBS, pH 7.4), cells were broken by sonication and centrifuged (200 g, 10 min). The supernatant was layered onto a 17/40% (w/v) discontinuous sucrose gradient and centrifuged (150,000 g for 30 min). Membrane fractions were collected from the 17/40% interface, aliquoted in 10 μl samples and were stored at −80° C. Protein concentration was determined with Bradford reagent. Flavin Adenine Dinucleotide (FAD) (catalog #F6625-500MG), MgCl2 (catalog #M8266-100G), Phosphatidic Acid (PA) (catalog #P3591-50MG) were purchased from Sigma-Aldrich. Horseradish peroxidase (HRP) (catalog #10108090001) was purchased from Roche. NADPH (catalog #A1395, 0500) was purchased from Applichem. Amplex red (AR) (catalog #A22177) was purchased from Invitrogen. 96 well polypropylene and black plates were purchased from Milian (catalog #055529 and #055218, respectively). FLUOstar OPTIMA microplate reader was supplied by BMG Labtech (Germany). Zephyr® Compact Liquid Handling Workstation was supplied by PerkinElmer (Germany).
Assay 1: ROS Production Measurement on hNOX Membranes
All Solutions were placed on ice and protected from light. The final concentration in the 1× hNOX membrane fluorescent assay buffer were PBS pH7, 6 μM FAD, 15 μM PA, 1 mM MgCl2, 12.5 μM AR, 0.02 u/ml, 125 ng membranes, 1.5 μg of cofactors and 30 μM NADPH. The NADPH was dissolved in water at a concentration of 12 mM and was transferred in a metal transfer plate kept at 4° C. The NADPH was added to the assay plate to initiate the reaction just before the measurement.
Serial dilution (1:3, 10 serial dilution) of the compounds was performed in 100% DMSO in 96 well polypropylene plate—Row B—H Column 1-10, Row A, Column 1-10 contained reference compound. Starting concentration was 10^−2 M (10 mM). Final concentration in assay was 10^−4 M (100 μM). Compounds were diluted twice in PBS buffer by transferring 30 μl/well of PBS into 30 μl/well compounds sample in DMSO using Zephyr® Compact Liquid Handling Workstation. Control wells-columns 1 and 12-contained 60 μl DMSO in 50% PBS pH7.
Reaction mixture is dispensed using Zephyr® Compact Liquid Handling Workstation. 90 μl of mix with membrane were dispensed into 96 well black plates—Column 2-11, Column 1 Row A-D, Column 12 Row E-H. 90 μl of control mix were dispensed into assay plate—Column 1 Row E-H, Column 12 Row A-D, which are wells for measuring background signal. 2 μl of compounds were dispensed into each well of assay plate using Zephyr® Compact Liquid Handling Workstation. The reaction mixture with compounds was incubated in assay plates for 20 min at 37° C. in a Titramax microplate incubator with gentle agitation. 10 μl of NADPH is dispensed to the assay plate. Fluorescence reading was recorded with the FLUOstar OPTIMA microplate reader for 10 min at 37° C. (8 cycles, 1 cycle duration 55 sec).
The Table 14 below summarizes the inhibition of NOX activity as measured by the above described assay 1 and expressed by their inhibitory constant calculated by non linear regression analysis using GraphPad Prism Software (GraphPad Software Co., San Diego, CA): […]
With `COc1cncc(-c2ccc3c(c2)cc(-c2ccnc(C)c2)n3C(C)C)c1` [Example 111, 1-isopropyl-5-(5-methoxypyridin-3-yl)-2-(2-methylpyridin-4-yl)-1H-indole], the Ki amounted to 0.533 µM.

Turning to `COc1cncc(-c2cc3cc(-c4ccc(N5CCOCC5)nc4)n(C)c3cc2Cl)c1` [Example 112], the Ki turned out to be 0.17 µM.

As to `COCCn1c(-c2ccncc2)cc2cc(-c3ccncc3)ccc21` [Example 113, 1-(2-methoxyethyl)-2,5-di(pyridin-4-yl)-1H-indole], the Ki came to 0.969 µM.

Consider `COc1cncc(-c2ccc3c(cc(-c4cnc5c(c4)OCCN5C)n3C)c2Cl)c1` [Example 119], for which the Ki turned out to be 0.226 µM.

For the origin of these results see patent US12202816B2 (CALLIDITAS THERAPEUTICS SUISSE SA, priority 2018, dated 2025).
